Assay results published in ChEMBL document CHEMBL5576095, “Research progress of multi-target HDAC inhibitors blocking the BRD4-LIFR-JAK1-STAT3 signaling pathway in the treatment of cancer” (Bioorg Med Chem, 2024).

Assays:
[1] = target: Tyrosine-protein kinase JAK1 (Homo sapiens, UniProt P23458); assay: Inhibition of JAK1 (unknown origin)
[2] = Inhibition of CD4 (unknown origin)
[3] = target: Histone deacetylase 1 (Homo sapiens, UniProt Q13547); assay: Inhibition of HDAC1 (unknown origin)
[4] = system: KATO III stomach cancer cell line; assay: cells; settings: Homo sapiens
Description: Antiproliferative activity against human KATO III stomach cancer cell line

[5] = system: MV4-11; assay: Antiproliferative activity against human MV4-11 cells assessed as reduction in cell growth; type: functional, cell-based

Sequence of Tyrosine-protein kinase JAK1 (P23458 whole entry): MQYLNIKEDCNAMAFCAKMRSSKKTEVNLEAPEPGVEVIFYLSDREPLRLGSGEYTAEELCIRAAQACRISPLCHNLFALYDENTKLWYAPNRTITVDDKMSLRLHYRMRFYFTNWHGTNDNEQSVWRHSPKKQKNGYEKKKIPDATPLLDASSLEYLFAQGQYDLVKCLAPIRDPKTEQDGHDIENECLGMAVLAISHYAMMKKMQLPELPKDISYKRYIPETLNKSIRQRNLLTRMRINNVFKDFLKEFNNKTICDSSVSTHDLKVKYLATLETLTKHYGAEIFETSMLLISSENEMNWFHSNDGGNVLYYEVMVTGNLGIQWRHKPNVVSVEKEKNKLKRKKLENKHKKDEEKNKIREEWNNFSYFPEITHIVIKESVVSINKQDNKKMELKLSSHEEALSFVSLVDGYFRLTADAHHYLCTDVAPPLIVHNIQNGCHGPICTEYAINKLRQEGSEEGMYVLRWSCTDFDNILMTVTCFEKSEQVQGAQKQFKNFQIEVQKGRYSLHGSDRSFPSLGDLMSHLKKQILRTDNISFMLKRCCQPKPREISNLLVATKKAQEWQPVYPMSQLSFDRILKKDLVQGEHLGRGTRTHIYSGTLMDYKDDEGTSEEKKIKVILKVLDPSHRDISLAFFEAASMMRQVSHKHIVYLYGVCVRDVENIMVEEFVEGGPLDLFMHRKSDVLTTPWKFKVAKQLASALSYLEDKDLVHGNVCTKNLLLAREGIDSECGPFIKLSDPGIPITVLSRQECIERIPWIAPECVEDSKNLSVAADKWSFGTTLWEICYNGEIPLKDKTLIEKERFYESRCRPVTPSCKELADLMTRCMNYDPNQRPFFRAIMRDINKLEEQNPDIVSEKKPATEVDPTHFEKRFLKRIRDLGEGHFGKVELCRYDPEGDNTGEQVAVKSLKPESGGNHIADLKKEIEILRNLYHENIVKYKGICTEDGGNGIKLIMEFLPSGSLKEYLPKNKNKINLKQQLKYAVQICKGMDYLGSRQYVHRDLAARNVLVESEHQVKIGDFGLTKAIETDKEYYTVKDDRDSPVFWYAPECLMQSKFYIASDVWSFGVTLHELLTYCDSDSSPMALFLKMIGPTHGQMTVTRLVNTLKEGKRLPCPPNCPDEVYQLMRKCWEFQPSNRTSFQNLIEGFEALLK
Sequence of Histone deacetylase 1 (Q13547 whole entry): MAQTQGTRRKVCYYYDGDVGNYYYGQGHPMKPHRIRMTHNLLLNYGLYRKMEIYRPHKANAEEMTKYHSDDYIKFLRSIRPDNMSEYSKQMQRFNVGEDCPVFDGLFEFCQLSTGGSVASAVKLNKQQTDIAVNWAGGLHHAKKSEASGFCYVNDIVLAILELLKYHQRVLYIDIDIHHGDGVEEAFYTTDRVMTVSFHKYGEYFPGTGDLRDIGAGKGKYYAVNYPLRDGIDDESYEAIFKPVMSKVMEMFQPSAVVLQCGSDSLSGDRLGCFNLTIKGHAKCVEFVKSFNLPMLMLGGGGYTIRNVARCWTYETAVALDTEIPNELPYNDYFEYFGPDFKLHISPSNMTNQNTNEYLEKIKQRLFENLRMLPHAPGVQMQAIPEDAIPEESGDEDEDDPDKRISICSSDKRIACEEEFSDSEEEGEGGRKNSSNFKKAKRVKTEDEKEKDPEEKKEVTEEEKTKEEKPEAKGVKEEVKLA

Question: Which results are given for `CCn1c(C)nc2c(F)cc(-c3nc(Nc4ccc(CNC(=O)CCCCCCC(=O)NO)cc4)ncc3F)cc21`?
Answer: IC50 [1]: 22 nM; IC50 [2]: 1.2 nM; IC50 [3]: 26 nM

Question: With `COc1cc(OC)cc(N(CCNC(C)C)c2ccc3ncc(-c4cnn(C)c4)nc3c2)c1` [ERDAFITINIB] as the compound, how does the IC50 [4] read?
Answer: 4 nM

Question: With `CCNC(=O)c1cc2c(-c3cc(C(C)(C)O)ccc3Oc3c(C)cc(F)cc3C)cn(C)c(=O)c2[nH]1` [ABBV-744] as the compound, how does the IC50 [5] read?
Answer: 40 nM
